Laboratory results as given in US20060035901A1, “Methotrexate derivatives useful for treating cancer and arthritis” (Serenex, Inc., priority 2004, published 2006).
pIC50: −log10 of the molar value.

Experiments:
[1] = test system: SK-Mel 5 (skin; melanoma); test: Cell proliferation assay (WST-1), SK-Mel 5; format: cell-based; settings: SK-Mel 5 cells
Method: (§1) A panel of cancer cell lines was obtained from the DCTP Tumor Repository, National Cancer Institute (Fredrick, Md.) or ATCC (Rockville, Md.). Cell cultures were maintained in Hyclone RPMI 1640 medium (Logan, Utah) supplemented with 10% fetal bovine serum and 20 mM HEPES buffer, pH 7.2, at 37° C., 5% CO2 atmosphere. Cultures were maintained at sub-confluent densities.
(§2) For proliferation assays, cells were seeded with the appropriate medium into 96 well plates at 1,000-2,000 cells per well, depending on cell line, and were incubated overnight. The following day, an amount of test compound, DMSO solution (negative control), or Actinomycin D (positive control) was added to the appropriate wells as 10× concentrated stocks prepared in phosphate buffered saline. The cell plates were then incubated for an additional 2-5 days, dependent on cell line, to allow for proliferation to occur. […] Optical density was determined for each well a 450 nm using a Tecan GniosPro plate reader (RTP, NC). The percentage of cell growth was then determined by comparing the cell growth in the presence of test compounds to the DMSO vehicle control treated cells (100% growth) and […] Actinomycin D treated cells (0% growth).

EGFR = EGFR (Homo sapiens, UniProt P00533); test: Elution of EGFR from ATP-Sepharose column by compound (Proteome Mining), IC50 estimate; format: binding; settings: estimated from percent of protein eluted from ATP-Sepharose column, gel densitometry; read-out: Approximate IC50 for EGFR
Chain of EGFR (P00533 25-1210, species assumed): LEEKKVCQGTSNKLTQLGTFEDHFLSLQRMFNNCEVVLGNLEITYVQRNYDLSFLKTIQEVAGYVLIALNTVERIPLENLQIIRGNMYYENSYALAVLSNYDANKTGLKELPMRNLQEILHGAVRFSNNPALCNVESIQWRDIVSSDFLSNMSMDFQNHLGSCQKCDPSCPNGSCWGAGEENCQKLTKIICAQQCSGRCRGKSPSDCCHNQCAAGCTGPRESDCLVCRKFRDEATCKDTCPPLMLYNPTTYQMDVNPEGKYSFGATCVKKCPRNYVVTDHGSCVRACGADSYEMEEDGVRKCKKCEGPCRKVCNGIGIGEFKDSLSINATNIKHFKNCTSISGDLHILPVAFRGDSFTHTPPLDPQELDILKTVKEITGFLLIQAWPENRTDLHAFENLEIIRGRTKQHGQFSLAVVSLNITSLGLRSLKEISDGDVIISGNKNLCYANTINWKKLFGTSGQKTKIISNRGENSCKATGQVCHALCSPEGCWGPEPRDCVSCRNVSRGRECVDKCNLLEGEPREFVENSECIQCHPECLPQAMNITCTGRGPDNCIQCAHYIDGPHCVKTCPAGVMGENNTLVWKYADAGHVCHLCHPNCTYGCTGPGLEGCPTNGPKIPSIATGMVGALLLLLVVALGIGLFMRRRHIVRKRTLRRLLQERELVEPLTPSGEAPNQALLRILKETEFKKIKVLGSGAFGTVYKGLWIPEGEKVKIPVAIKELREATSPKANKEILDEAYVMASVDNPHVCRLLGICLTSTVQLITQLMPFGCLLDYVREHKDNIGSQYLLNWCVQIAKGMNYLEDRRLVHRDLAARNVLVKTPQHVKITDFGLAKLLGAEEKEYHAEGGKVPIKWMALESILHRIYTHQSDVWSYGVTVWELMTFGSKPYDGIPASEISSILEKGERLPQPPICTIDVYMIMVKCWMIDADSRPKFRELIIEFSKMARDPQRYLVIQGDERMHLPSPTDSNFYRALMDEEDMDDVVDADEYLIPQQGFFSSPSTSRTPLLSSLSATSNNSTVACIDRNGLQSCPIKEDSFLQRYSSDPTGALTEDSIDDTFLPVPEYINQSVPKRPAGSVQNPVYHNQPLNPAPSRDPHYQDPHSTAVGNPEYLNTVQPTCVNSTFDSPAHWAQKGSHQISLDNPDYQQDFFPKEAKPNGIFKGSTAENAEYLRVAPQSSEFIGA
Method: A proteome containing a known quantity of Her2, EGFR, and B-Raf was run over an ATP-Sepharose™ column in order to bind all purine-binding proteins. See, WO 00/63694 and U.S. Provisional Application No. 60/453,697 filed Jan. 22, 2003, each of which is incorporated by reference in its entirety. The ATP-Sepharose™ was washed several times, and then eluted with the compound of Formula III. The experiment was run in duplicate at concentrations of 20 μM, 100 μM, and 500 μM of the compound of Formula III. The eluted fractions were run on a 1-dimensional SDS polyacrylamide gel. Gels were stained with a fluorescent stain such as sypro ruby (a highly sensitive fluorescent protein stain that can readily detect less than 1 fmol of total protein, i.e., less than 0.04 ng for a 40 kDa protein). The gels were imaged using a standard flat bed gel imager and the amount of protein estimated by densiometry. The percent of protein eluted from the column at each concentration was determined and IC50 values were calculated from these estimates. Where necessary, the eluted proteins were cut out of the gel, and identified using mass spectral techniques.
These steps were repeated with each of the compounds of Formulas IV-X, MTX, and the c series derivative.

[2] = test system: OVCAR-3 (ovarian; adenocarcinoma); test: Cell proliferation assay (WST-1), OVCAR-3; format: cell-based; settings: OVCAR-3 cells
Method: as §1, §2

[3] = test system: NCI/ADR Res (breast; adenocarcinoma); test: Cell proliferation assay (WST-1), NCI/ADR Res; format: cell-based; settings: NCI/ADR Res cells
Method: as §1, §2

[4] = test system: MCF-7 (mammary; adenocarcinoma); test: Cell proliferation assay (WST-1), MCF-7; format: cell-based; settings: MCF-7 cells
Method: as §1, §2

[5] = test system: HT29 (colon; adenocarcinoma, GRIII); test: Cell proliferation assay (WST-1), HT29; format: cell-based; settings: HT29 cells
Method: as §1, §2

SkBr (breast cancer) = test: Cell proliferation assay (WST-1), SkBr; format: cell-based; settings: SkBr cells
Method: as §1, §2

PC-3 (N/A; carcinoma) = test: Cell proliferation assay (WST-1), PC-3; format: cell-based; settings: PC-3 cells
Method: as §1, §2

[6] = test system: Lncap (prostate; carcinoma); test: Cell proliferation assay (WST-1), Lncap; format: cell-based; settings: Lncap cells
Method: as §1, §2

[7] = test system: SF-268 (central nervous system; anaplastic astrocytoma); test: Cell proliferation assay (WST-1), SF-268; format: cell-based; settings: SF-268 cells
Method: as §1, §2

[8] = test system: Human umbilical vein endothelial cells (HUVEC); test: Cell proliferation assay (WST-1, Cyquant DNA), HUVEC; format: cell-based
Method: Human umbilical vein endothelial cells (HUVEC) were purchased from Clonetics, a division of Cabrex (Walkersville, Md.). Cultures were established from cryopreserved stocks using Clonetics EGM-2 medium supplemented with 20 mM HEPES, pH 7.2, at 37° C., 5% CO2 atmosphere.
as §2, with “saline.” for “saline. The cell plates were then incubated for an additional 2-5 days, dependent on cell line, to allow for proliferation to occur.”
(§3) Immediately after the WST-1 determination, the medium was removed from the NCI-H460 and HUVEC cell lines, and the plates stored at −80° C. Using these assay plates, relative DNA amounts in each well were determined using the Cyquant DNA assay kit from […] (Eugene, Oreg.) following the manufacturer's directions. […]

[9] = test system: OVCAR8 (ovarian; adenocarcinoma); test: Cell proliferation assay (WST-1), OVCAR8; format: cell-based; settings: OVCAR8 cells
Method: as §1, §2

[10] = test system: T47D (mammary; carcinoma); test: Cell proliferation assay (WST-1), T47D; format: cell-based; settings: T47D cells
Method: as §1, §2

[11] = test system: NCI-H460 (lung; large cell carcinoma); test: Cell proliferation assay (WST-1, Cyquant DNA), NCI-H460; format: cell-based; settings: NCI-H460 cells
Method: as §1
as §2, with “saline.” for “saline. The cell plates were then incubated for an additional 2-5 days, dependent on cell line, to allow for proliferation to occur.”
as §3

BT474 (breast cancer) = test: Cell proliferation assay (WST-1), BT474; format: cell-based; settings: BT474 cells
Method: as §1, §2

[12] = test system: DMS-114 (N/A; small cell); test: Cell proliferation assay (WST-1), DMS-114; format: cell-based; settings: DMS-114 cells
Method: as §1, §2

[13] = test system: SR (lymphoma, pleural effusion); test: Cell proliferation assay (WST-1), SR; format: cell-based; settings: SR cells
Method: as §1, §2

- Fold Improvement in Cell Proliferation IC50 Compared to MTX [1]: >4 fold
- pIC50 (EGFR): 5.30
- Fold Improvement in Cell Proliferation IC50 Compared to MTX [2]: >3 fold
- Fold Improvement in Cell Proliferation IC50 Compared to MTX [3]: >1 fold
- Fold Improvement in Cell Proliferation IC50 Compared to MTX [4]: >1 fold
- Fold Improvement in Cell Proliferation IC50 Compared to MTX [5]: >6 fold
- Fold Improvement in Cell Proliferation IC50 Compared to MTX (SkBr (breast cancer)): >2 fold
- Fold Improvement in Cell Proliferation IC50 Compared to MTX (PC-3 (N/A; carcinoma)): >1 fold
- Fold Improvement in Cell Proliferation IC50 Compared to MTX [6]: 7 fold
- Fold Improvement in Cell Proliferation IC50 Compared to MTX [7]: >4 fold
- Fold Improvement in Cell Proliferation IC50 Compared to MTX [9]: >2 fold
- Fold Improvement in Cell Proliferation IC50 Compared to MTX [10]: 3 fold
- Fold Improvement in Cell Proliferation IC50 Compared to MTX [11]: >1 fold
- Fold Improvement in Cell Proliferation IC50 Compared to MTX (BT474 (breast cancer)): >5 fold
- Fold Improvement in Cell Proliferation IC50 Compared to MTX [13]: >4 fold
Structure (SMILES): C#CCN(Cc1cnc2nc(N)nc(N)c2n1)c1ccc(C(=O)NC(CCC(=O)O)C(=O)O)cc1C (centres unmarked) [Formula III, 2-{4-[(2,4-diamino-pteridin-6-ylmethyl)-prop-2-ynyl-amino]-3-methyl-benzoylamino}-pentanedioic acid]
- Fold Improvement in Cell Proliferation IC50 Compared to MTX [8]: >2 fold
- Fold Improvement in Cell Proliferation IC50 Compared to MTX [12]: >4 fold
